By solubility (kinetic) is commonly meant solubility judged after dilution from a stock solution rather than from solid.

The values below come from patent publication US20260224533A1, “CRYSTALLINE NANOPARTICLES COMPRISING ENZALUTAMIDE” (HELM PHARMACEUTICALS GMBH, priority 2023, published 2026).

Data set [1] is described as follows: Kinetic solubility of Enzalutamide in simulated fluids. Conditions: kinetic from dmso stock, 37° C. The class given is physicochemical. The text has this:
Preferably, the content of the amorphous nanosized Enzalutamide in the slurry or suspension is at least 10 times higher, more preferably at least 50 times, still more preferably at least 100 times higher, even more preferably at least 500 times higher than its solubility in the liquid, preferably aqueous solution, comprising the one or more polymers and/or copolymers to form the suspension or the slurry. Accordingly, the amount of Enzalutamide amorphous nanoparticles provided in step (a) that is needed depends on its solubility. The solubility can be measured by any method known in the art. […] A decent slurry can thus be produced when the slurry or suspension comprises e.g. 5 mg of the amorphous nanoparticles provided in step (a) in 1 mL of the slurry or suspension.

For data set [2] the following is noted: cited from earlier work.

SMILES strings stand for the structures. In brackets after ≈: the same amount, converted by molar mass.

As to `CNC(=O)c1ccc(N2C(=S)N(c3ccc(C#N)c(C(F)(F)F)c3)C(=O)C2(C)C)cc1F` [Enzalutamide], the solubility (kinetic) was approximately 74 µg/mL (≈ 159 µM) in data set [1] (Fasted State Simulated Intestinal Fluid (FaSSIF)) and approximately 50 µg/mL (≈ 108 µM) in data set [1] (Simulated Gastric Fluid (SGF)). For the same compound, the solubility in water result in data set [2] is given as “insoluble”.
